Measurements as given in patent US9938322B2, “β-hairpin peptidomimetics” (priority 2013, dated 2018).
*1 amine or outer side, *2 acyl side, *3 side chain or, on linkers, in order; H or OH if unused. Where a SMILES comes first, the peptide text is derived from it. Side-chain parts run from the residue outwards. [ ]: non-standard residue; d: D form. The star is where a group is joined. Cha = N[C@@H](CC1CCCCC1)C(=O)O; NH(3-picolyl) = c1cncc(CN*)c1; Chg = N[C@H](C(=O)O)C1CCCCC1; Tle = CC(C)(C)[C@H](N)C(=O)O; dDab = NCC[C@@H](N)C(=O)O; hSer = N[C@@H](CCO)C(=O)O; Orn = NCCC[C@H](N)C(=O)O; Dab = NCC[C@H](N)C(=O)O; Nva = CCC[C@H](N)C(=O)O; Dap = NC[C@H](N)C(=O)O; X4 = CCCCOc1ccc(N*)cc1; CO = O=C([*:1])[*:2]; NHiPr = CC(C)N*

test system: human red blood cells (hRBC); experiment: Hemolysis of human red blood cells; type: cell-based; details: red cells of human, 1 h, 100
Experimental: Lyophilized peptides were weighed on a Microbalance (Mettler MT5) and dissolved in sterile water to a final concentration of 1 mg/ml. Stock solutions were kept at +4° C., light protected.
The peptides were tested for their hemolytic activity against human red blood cells (hRBC). Fresh hRBC were washed three times with phosphate buffered saline (PBS) and centrifuged for 10 min at 2000×g. Compounds (100 μg/ml) were incubated with 20% hRBC (v/v) for 1 h at 37° C. and shaking at 300 rpm. The final erythrocyte concentration was approximately 0.9×10^9 cells/ml. A value of 0% and 100% cell lyses, respectively, was determined by incubation of hRBC in the presence of PBS containing 0.001% acetic acid and 2.5% Triton X-100 in H2O, respectively. The samples were centrifuged, the supernatants were 8-fold diluted in PBS buffer and the optical densities (OD) were measured at 540 nm. The 100% lyses value (OD540H2O) gave an OD540 of approximately 0.5-1.0.
Percent hemolysis was calculated as follows: (OD540peptide/OD540H2O)×100%.

| SMILES | Hemolysis at 100 μg/ml [%] |
| --- | --- |
| CC(C)C[C@@H]1NC(=O)[C@@H]2CCCN2C(=O)[C@H]2CCCN2C(=O)[C@H](CO)NC(=O)[C@H](C)NC(=O)[C@H](C(C)(C)C)NC(=O)[C@H](CCN)NC(=O)[C@H](Cc2c[nH]c3ccccc23)NC(=O)[C@H](CCN)NC(=O)[C@H](CCN)NC(=O)[C@H](CCCCN)NC(=O)[C@H](CCN)NC(=O)[C@H](Cc2ccc(O)cc2)NC(=O)[C@H](CO)NC1=O [compound 26] (cyclo(LSY[Dab]K[Dab][Dab]W[Dab][Tle]AS[dP]P)) | 1 |
| COc1ccc(C[C@@H]2NC(=O)[C@H](CO)NC(=O)[C@H](CC(C)C)NC(=O)[C@@H]3CCCN3C(=O)[C@H]3CCCN3C(=O)[C@H](CO)NC(=O)[C@H](C)NC(=O)[C@H](C(C)(C)C)NC(=O)[C@H](CCN)NC(=O)[C@H](Cc3c[nH]c4ccccc34)NC(=O)[C@H](CCN)NC(=O)[C@@H](CCN)NC(=O)[C@H](CCCN)NC(=O)[C@H](CCN)NC2=O)cc1 [compound 27] (cyclo(LSY(Me)[Dab][Orn][dDab][Dab]W[Dab][Tle]AS[dP]P)) | 1 |
| CC(C)C[C@@H]1NC(=O)[C@@H]2CCCN2C(=O)[C@H]2CCCN2C(=O)[C@H](CO)NC(=O)[C@H](C)NC(=O)[C@H](C(C)(C)C)NC(=O)[C@H](CCN)NC(=O)[C@H](Cc2c[nH]c3ccccc23)NC(=O)[C@H](CCN)NC(=O)[C@@H](CCN)NC(=O)[C@H](CCCN)NC(=O)[C@H](CCN)NC(=O)[C@H](Cc2ccccc2)NC(=O)[C@H](CO)NC1=O [compound 28] (cyclo(LSF[Dab][Orn][dDab][Dab]W[Dab][Tle]AS[dP]P)) | 2 |
| CC(C)C[C@@H]1NC(=O)[C@@H]2CCCN2C(=O)[C@H]2CCCN2C(=O)[C@H](CO)NC(=O)[C@H](C)NC(=O)[C@H](C2CCCCC2)NC(=O)[C@H](CCN)NC(=O)[C@H](Cc2c[nH]c3ccccc23)NC(=O)[C@H](CCN)NC(=O)[C@@H](CCN)NC(=O)[C@H](CCCN)NC(=O)[C@H](CCN)NC(=O)[C@H](Cc2ccc(O)cc2)NC(=O)[C@H](CO)NC1=O [compound 29] (cyclo(LSY[Dab][Orn][dDab][Dab]W[Dab][Chg]AS[dP]P)) | 6 |
| CCC[C@@H]1NC(=O)[C@H](CCN)NC(=O)[C@H](Cc2c[nH]c3ccccc23)NC(=O)[C@H](CCN)NC(=O)[C@@H](CCN)NC(=O)[C@H](CCCN)NC(=O)[C@H](CCN)NC(=O)[C@H](Cc2ccc(O)cc2)NC(=O)[C@H](CO)NC(=O)[C@H](CC(C)C)NC(=O)[C@@H]2CCCN2C(=O)[C@H]2CCCN2C(=O)[C@H](CO)NC(=O)[C@H](C)NC1=O [compound 30] (cyclo(LSY[Dab][Orn][dDab][Dab]W[Dab][Nva]AS[dP]P)) | 1 |
| CC(C)C[C@@H]1NC(=O)[C@@H]2CCCN2C(=O)[C@H]2CCCN2C(=O)[C@H](CO)NC(=O)[C@H](C)NC(=O)[C@H](Cc2ccc(O)cc2)NC(=O)[C@H](CCN)NC(=O)[C@H](Cc2c[nH]c3ccccc23)NC(=O)[C@H](CCN)NC(=O)[C@@H](CCN)NC(=O)[C@H](CCCN)NC(=O)[C@H](CCN)NC(=O)[C@H](Cc2ccc(O)cc2)NC(=O)[C@H](CO)NC1=O [compound 31] (cyclo(LSY[Dab][Orn][dDab][Dab]W[Dab]YAS[dP]P)) | 1 |
| COc1ccc(C[C@@H]2NC(=O)[C@H](CCN)NC(=O)[C@H](Cc3c[nH]c4ccccc34)NC(=O)[C@H](CCN)NC(=O)[C@@H](CCN)NC(=O)[C@H](CCCN)NC(=O)[C@H](CCN)NC(=O)[C@H](Cc3ccc(O)cc3)NC(=O)[C@H](CO)NC(=O)[C@H](CC(C)C)NC(=O)[C@@H]3CCCN3C(=O)[C@H]3CCCN3C(=O)[C@H](CO)NC(=O)[C@H](C)NC2=O)cc1 [compound 32] (cyclo(LSY[Dab][Orn][dDab][Dab]W[Dab]Y(Me)AS[dP]P)) | 1 |
| CC(C)C[C@@H]1NC(=O)[C@@H]2CCCN2C(=O)[C@H]2CCCN2C(=O)[C@H](CO)NC(=O)[C@H](C)NC(=O)[C@H](C(C)(C)C)NC(=O)[C@H](CCN)NC(=O)[C@H](Cc2c[nH]c3ccccc23)NC(=O)[C@H](CCN)NC(=O)[C@@H](CCN)NC(=O)[C@H](CCCN)NC(=O)[C@H](CCN)NC(=O)[C@H](Cc2c[nH]c3ccccc23)NC(=O)[C@H](CO)NC1=O [compound 33] (cyclo(LSW[Dab][Orn][dDab][Dab]W[Dab][Tle]AS[dP]P)) | 3.5 |
| CC(C)C[C@@H]1NC(=O)[C@@H]2CCCN2C(=O)[C@H]2CCCN2C(=O)[C@H](CO)NC(=O)[C@H](C)NC(=O)[C@H](Cc2c[nH]c3ccccc23)NC(=O)[C@H](CCN)NC(=O)[C@H](Cc2c[nH]c3ccccc23)NC(=O)[C@H](CCN)NC(=O)[C@@H](CCN)NC(=O)[C@H](CCCN)NC(=O)[C@H](CCN)NC(=O)[C@H](Cc2ccc(O)cc2)NC(=O)[C@H](CO)NC1=O [compound 34] (cyclo(LSY[Dab][Orn][dDab][Dab]W[Dab]WAS[dP]P)) | 1 |
| CC(C)C[C@@H]1NC(=O)[C@@H]2CCCN2C(=O)[C@H]2CCCN2C(=O)[C@H](CO)NC(=O)[C@H](C)NC(=O)[C@H](C(C)C)NC(=O)[C@H](CCN)NC(=O)[C@H](Cc2c[nH]c3ccccc23)NC(=O)[C@H](CCN)NC(=O)[C@@H](CCN)NC(=O)[C@H](CCCN)NC(=O)[C@H](CCN)NC(=O)[C@H](Cc2ccc(O)cc2)NC(=O)[C@H](CO)NC1=O [compound 35] (cyclo(LSY[Dab][Orn][dDab][Dab]W[Dab]VAS[dP]P)) | 1 |
| CC(C)C[C@@H]1NC(=O)[C@@H]2CCCN2C(=O)[C@H]2CCCN2C(=O)[C@H](CO)NC(=O)[C@H](C)NC(=O)[C@H](C(C)(C)C)NC(=O)[C@H](CCN)NC(=O)[C@H](Cc2c[nH]c3ccccc23)NC(=O)[C@H](CCN)NC(=O)[C@@H](CCN)NC(=O)[C@H](CCCN)NC(=O)[C@H](CCN)NC(=O)[C@H](Cc2ccc(O)cc2)NC(=O)[C@H](CO)NC1=O [compound 36] (cyclo(LSY[Dab][Orn][dDab][Dab]W[Dab][Tle]AS[dP]P)) | 1 |
| CC(C)C[C@@H]1NC(=O)[C@@H]2CCCN2C(=O)[C@H]2CCCN2C(=O)[C@H](CO)NC(=O)[C@H](C)NC(=O)[C@H](C(C)(C)C)NC(=O)[C@H](CCO)NC(=O)[C@H](Cc2c[nH]c3ccccc23)NC(=O)[C@H](CCN)NC(=O)[C@@H](CCN)NC(=O)[C@H](CCCN)NC(=O)[C@H](CCN)NC(=O)[C@H](Cc2ccc(O)cc2)NC(=O)[C@H](CO)NC1=O [compound 37] (cyclo(LSY[Dab][Orn][dDab][Dab]W[hSer][Tle]AS[dP]P)) | 1 |
| CC(C)C[C@@H]1NC(=O)[C@@H]2CCCN2C(=O)[C@H]2CCCN2C(=O)[C@H](CO)NC(=O)[C@H](C)NC(=O)[C@H](C(C)(C)C)NC(=O)[C@H](CCN)NC(=O)[C@H](Cc2c[nH]c3ccccc23)NC(=O)[C@H](CCN)NC(=O)[C@@H](CCN)NC(=O)[C@H](CCCN)NC(=O)[C@H](CCN)NC(=O)[C@H](CC2CCCCC2)NC(=O)[C@H](CNC(=O)NCc2cccnc2)NC1=O [compound 39] (cyclo(L[Dap]([CO-NH(3-picolyl)])[Cha][Dab][Orn][dDab][Dab]W[Dab][Tle]AS[dP]P)) | 3 |
| CC(C)C[C@@H]1NC(=O)[C@@H]2CCCN2C(=O)[C@H]2CCCN2C(=O)[C@H](CO)NC(=O)[C@H](C)NC(=O)[C@H](C(C)(C)C)NC(=O)[C@H](CCN)NC(=O)[C@H](Cc2c[nH]c3ccccc23)NC(=O)[C@H](CCN)NC(=O)[C@@H](CCN)NC(=O)[C@H](CCCN)NC(=O)[C@H](CCN)NC(=O)[C@H](CC2CCCCC2)NC(=O)[C@H](CNC(=O)NC(C)C)NC1=O [compound 40] (cyclo(L[Dap]([CO-NHiPr])[Cha][Dab][Orn][dDab][Dab]W[Dab][Tle]AS[dP]P)) | 1 |
| CCCCOc1ccc(NC(=O)NC[C@@H]2NC(=O)[C@H](CC(C)C)NC(=O)[C@@H]3CCCN3C(=O)[C@H]3CCCN3C(=O)[C@H](CO)NC(=O)[C@H](C)NC(=O)[C@H](C(C)(C)C)NC(=O)[C@H](CCN)NC(=O)[C@H](Cc3c[nH]c4ccccc34)NC(=O)[C@H](CCN)NC(=O)[C@@H](CCN)NC(=O)[C@H](CCCN)NC(=O)[C@H](CCN)NC(=O)[C@H](CC3CCCCC3)NC2=O)cc1 [compound 41] (cyclo(L[Dap]([CO-X4])[Cha][Dab][Orn][dDab][Dab]W[Dab][Tle]AS[dP]P)) | 7 |
| CC(C)C[C@@H]1NC(=O)[C@@H]2CCCN2C(=O)[C@H]2CCCN2C(=O)[C@H](CN)NC(=O)[C@H](C)NC(=O)[C@H](C(C)(C)C)NC(=O)[C@H](CCO)NC(=O)[C@H](Cc2c[nH]c3ccccc23)NC(=O)[C@H](CCN)NC(=O)[C@@H](CCN)NC(=O)[C@H](CCCN)NC(=O)[C@H](CCN)NC(=O)[C@H](Cc2ccc(O)cc2)NC(=O)[C@H](CO)NC1=O [compound 42] (cyclo(LSY[Dab][Orn][dDab][Dab]W[hSer][Tle]A[Dap][dP]P)) | 1 |
| CC(C)C[C@@H]1NC(=O)[C@@H]2CCCN2C(=O)[C@H]2CCCN2C(=O)[C@H](CO)NC(=O)[C@H](C)NC(=O)[C@H](C(C)(C)C)NC(=O)[C@H](CCN)NC(=O)[C@H](Cc2c[nH]c3ccccc23)NC(=O)[C@H](CCN)NC(=O)[C@@H](CCN)NC(=O)[C@H](CCCN)NC(=O)[C@H](CCN)NC(=O)[C@H](Cc2ccc(O)cc2)NC(=O)[C@H](C)NC1=O [compound 43] (cyclo(LAY[Dab][Orn][dDab][Dab]W[Dab][Tle]AS[dP]P)) | 1 |
